Assay results taken from paper PMC12311865, “In Vitro Evaluation of the Potential Interactions of Zearalenone-14-sulfate and Zearalenone-14-glucuronide with Human Cytochrome P450 Enzymes, Organic Anion Transporting Polypeptides, and ATP-Binding Cassette Multidrug Transporters” (ACS Omega, 2025).

Key:
CYP2C9 = molecular target: T1, CYP2C9 (Homo sapiens, UniProt P11712); assay: in vitro; assay type: biochemical; details: human, pH 7.5
T1 construct: purchased Merck
Experimental: Inhibitory actions of ZEN conjugates on CYP2C9 and CYP3A4 enzymes were examined employing CypExpress Cytochrome P450 human kits. , Briefly, incubates (200 μL) contained the substrate (5 μM; diclofenac for CYP2C9 and testosterone for CYP3A4), the CypExpress reagent (6 mg/mL of CYP2C9 kit or 15 mg/mL of CYP3A4 kit; also including the glucose-6-phosphate dehydrogenase enzyme), and the test compounds (each 20 μM) in 0.05 M potassium phosphate buffer (pH 7.5). CYP3A4 assay was supplemented with additional G6P and NADP^+ (both 400 μM). Enzyme assays were started with the addition of the enzyme. After 120 min (CYP2C9) or 180 min (CYP3A4) incubation at 700 rpm and 30 °C in a thermomixer, the reaction was stopped with 100 μL of ice-cold methanol. Then, the samples were centrifuged for 10 min at 14,000g and room temperature. The supernatants were gently removed and directly analyzed by HPLC (see Section ).
Diclofenac and 4′-hydroxydiclofenac (CYP2C9 assay) were quantified using the previously reported HPLC-UV assay, , without modification. Briefly, the isocratic elution, with 1.0 mL/min flow rate, was performed with orthophosphoric acid (6 mM) and acetonitrile (48:52 v/v %) mobile phase, applying a Security Guard (C8, 4.0 × 3.0 mm; Phenomenex, Torrance, CA) precolumn and a Mediterranea Sea8 (C8, 150 × 4.6 mm, 5 μm; Teknokroma, Barcelona, Spain) analytical column at room temperature (injected volume: 20 μL). Diclofenac and 4′-hydroxydiclofenac were detected at 275 nm.

MDR1 = molecular target: T2, MDR1 (Homo sapiens, UniProt P08183); assay: MDR1-mediated NMQ vesicular transport (Sf9 membrane vesicles); assay type: biochemical; details: human; 30 μM; NMQ 5 μM; read-out: inhibition of MDR1-mediated, ATP-dependent uptake of NMQ
T2 construct: made in house; host or cells: Sf9 insect cells (baculovirus)
T2 sequence (P08183 whole entry): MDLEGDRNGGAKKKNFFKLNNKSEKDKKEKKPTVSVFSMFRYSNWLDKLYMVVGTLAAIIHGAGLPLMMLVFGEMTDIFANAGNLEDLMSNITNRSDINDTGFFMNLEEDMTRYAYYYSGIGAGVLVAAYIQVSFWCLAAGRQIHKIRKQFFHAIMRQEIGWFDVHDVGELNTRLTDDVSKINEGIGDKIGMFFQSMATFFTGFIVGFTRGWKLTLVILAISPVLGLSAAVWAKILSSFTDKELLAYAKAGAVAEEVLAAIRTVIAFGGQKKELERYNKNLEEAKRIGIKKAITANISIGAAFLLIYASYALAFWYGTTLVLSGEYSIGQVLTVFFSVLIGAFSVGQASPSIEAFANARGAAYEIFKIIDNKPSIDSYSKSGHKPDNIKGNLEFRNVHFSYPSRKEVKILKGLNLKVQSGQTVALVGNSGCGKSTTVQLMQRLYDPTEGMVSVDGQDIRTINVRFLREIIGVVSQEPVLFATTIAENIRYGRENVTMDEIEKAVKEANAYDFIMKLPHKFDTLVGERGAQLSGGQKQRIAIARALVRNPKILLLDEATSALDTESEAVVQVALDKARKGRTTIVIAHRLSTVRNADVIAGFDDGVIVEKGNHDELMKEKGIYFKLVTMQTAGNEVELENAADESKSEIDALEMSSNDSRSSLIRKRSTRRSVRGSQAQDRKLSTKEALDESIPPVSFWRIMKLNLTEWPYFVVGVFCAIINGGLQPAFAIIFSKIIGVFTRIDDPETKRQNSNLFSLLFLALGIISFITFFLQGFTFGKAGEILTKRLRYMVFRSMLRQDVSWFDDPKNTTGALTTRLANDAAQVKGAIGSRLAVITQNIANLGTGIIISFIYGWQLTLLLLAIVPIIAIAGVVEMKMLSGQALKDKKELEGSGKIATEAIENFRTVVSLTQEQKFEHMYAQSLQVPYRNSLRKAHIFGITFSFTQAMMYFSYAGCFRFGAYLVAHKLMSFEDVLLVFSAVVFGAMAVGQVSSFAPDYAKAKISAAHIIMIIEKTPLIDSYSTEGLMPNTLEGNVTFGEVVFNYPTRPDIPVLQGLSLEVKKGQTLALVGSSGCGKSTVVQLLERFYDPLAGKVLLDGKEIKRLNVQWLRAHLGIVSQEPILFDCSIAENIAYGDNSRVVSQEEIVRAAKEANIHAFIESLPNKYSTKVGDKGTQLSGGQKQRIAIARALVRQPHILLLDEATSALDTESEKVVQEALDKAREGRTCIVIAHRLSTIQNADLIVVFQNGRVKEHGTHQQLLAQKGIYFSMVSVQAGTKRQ
Experimental: Experiments were performed in insect membrane vesicles, as described previously. Briefly, human MDR1, BCRP, and MRP2 were expressed in Sf9 insect cells by baculoviruses. On the third day of infection, cells were collected and membrane vesicles were obtained by mechanical disruption and differential centrifugation. To get full activity for BCRP, the cholesterol levels of the vesicles were adjusted to the level of mammalian membranes. Vesicles were stored at −80 °C, and the total protein content of the preparations was measured by the Lowry method (used as a reference for the quantity). […] A 100 μL volume of fluorescence stabilizer was added to the samples (DMSO for LY, 0.1 M H2SO4 for NMQ, and 0.1 M NaOH for CDCF). Fluorescence of samples was measured by plate readers (Victor X3 and Enspire PerkinElmer; Waltham, MA) at appropriate wavelengths (filters in the Victor X3 reader were 405/535 nm for LY and 492/635 nm for CDCF; while in the Enspire reader, NMQ was measured at 360/430 nm excitation/emission wavelengths). ABC-related transport was calculated by subtracting passive uptake measured without Mg-ATP from values measured in the presence of Mg-ATP.

T1 sequence (P11712 whole entry): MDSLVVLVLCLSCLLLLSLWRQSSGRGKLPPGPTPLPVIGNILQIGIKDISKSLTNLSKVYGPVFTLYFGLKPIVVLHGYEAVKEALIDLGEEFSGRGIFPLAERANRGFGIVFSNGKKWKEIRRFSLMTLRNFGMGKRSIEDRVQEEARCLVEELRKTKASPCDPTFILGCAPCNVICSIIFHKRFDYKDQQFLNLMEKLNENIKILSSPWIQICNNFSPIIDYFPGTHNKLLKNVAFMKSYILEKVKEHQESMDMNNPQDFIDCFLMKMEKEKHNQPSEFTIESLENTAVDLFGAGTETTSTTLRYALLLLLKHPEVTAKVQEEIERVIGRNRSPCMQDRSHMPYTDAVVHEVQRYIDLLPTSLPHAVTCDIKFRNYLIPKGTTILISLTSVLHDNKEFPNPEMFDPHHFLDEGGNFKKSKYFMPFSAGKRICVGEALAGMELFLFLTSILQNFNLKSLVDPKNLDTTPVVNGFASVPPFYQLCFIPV

Nc1ccc(S(=O)(=O)Nc2ccnn2-c2ccccc2)cc1 [sulfaphenazole, reference compound]
inhibition of CYP2C9 (decrease in metabolite formation) (CYP2C9): more than 90%

COc1ccc(CCN(C)CCCC(C#N)(c2ccc(OC)c(OC)c2)C(C)C)cc1OC (centres unmarked) [verapamil, reference compound]
inhibition at 10 min, 30 μM (MDR1): 97%
